PubChem BioAssay (NCI)
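Values below derive from 48-hour exposures of cells grown in 96-well plates, with endpoints linearly interpolated between the two concentrations bracketing the appropriate inhibition level. GI50 = concentration required for 50% inhibition of growth. TGI: concentration producing complete growth inhibition.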

Tests used:
Experiment in all cases: DTP human tumour cell line panel, 48 h
786-0 renal = test system: 786-0 renal
A498 renal = test system: A498 renal
A549 NSCLC = test system: A549 NSCLC
ACHN renal = test system: ACHN renal
BT-549 breast = test system: BT-549 breast
CAKI-1 renal = test system: CAKI-1 renal
CCRF-CEM leukemia = test system: CCRF-CEM leukemia
COLO 205 colon = test system: COLO 205 colon
DU-145 prostate = test system: DU-145 prostate
EKVX NSCLC = test system: EKVX NSCLC
HCC-2998 colon = test system: HCC-2998 colon
HCT-15 colon = test system: HCT-15 colon
HL-60(TB) leukemia = test system: HL-60(TB) leukemia
HOP-62 NSCLC = test system: HOP-62 NSCLC
HOP-92 NSCLC = test system: HOP-92 NSCLC
HS 578T breast = test system: HS 578T breast
HT29 colon = test system: HT29 colon
IGROV1 ovarian = test system: IGROV1 ovarian
K-562 leukemia = test system: K-562 leukemia
KM12 colon = test system: KM12 colon
LOX IMVI melanoma = test system: LOX IMVI melanoma
M14 melanoma = test system: M14 melanoma
MALME-3M melanoma = test system: MALME-3M melanoma
MCF7 breast = test system: MCF7 breast
MDA-MB-231 breast = test system: MDA-MB-231 breast
MDA-MB-435 = test system: MDA-MB-435
MOLT-4 leukemia = test system: MOLT-4 leukemia
NCI-H226 lung = test system: NCI-H226 lung
NCI-H23 lung = test system: NCI-H23 lung
NCI-H460 lung = test system: NCI-H460 lung
NCI-H522 lung = test system: NCI-H522 lung
NCI/ADR-RES ovarian = test system: NCI/ADR-RES ovarian
OVCAR-3 ovarian = test system: OVCAR-3 ovarian
OVCAR-4 ovarian = test system: OVCAR-4 ovarian
OVCAR-5 ovarian = test system: OVCAR-5 ovarian
OVCAR-8 ovarian = test system: OVCAR-8 ovarian
PC-3 prostate = test system: PC-3 prostate
RPMI-8226 leukemia = test system: RPMI-8226 leukemia
RXF 393 renal = test system: RXF 393 renal
SF-268 CNS = test system: SF-268 CNS
SF-295 CNS = test system: SF-295 CNS
SF-539 CNS = test system: SF-539 CNS
SK-MEL-2 melanoma = test system: SK-MEL-2 melanoma
SK-MEL-28 melanoma = test system: SK-MEL-28 melanoma
SK-MEL-5 melanoma = test system: SK-MEL-5 melanoma
SK-OV-3 ovarian = test system: SK-OV-3 ovarian
SN12C renal = test system: SN12C renal
SNB-19 CNS = test system: SNB-19 CNS
SNB-75 CNS = test system: SNB-75 CNS
SR leukemia = test system: SR leukemia
SW-620 colon = test system: SW-620 colon
T-47D breast = test system: T-47D breast
TK-10 renal = test system: TK-10 renal
U251 CNS = test system: U251 CNS
UACC-257 melanoma = test system: UACC-257 melanoma
UACC-62 melanoma = test system: UACC-62 melanoma
UO-31 renal = test system: UO-31 renal

SMILES: COC(=O)c1ccc2c(c1)c1c(C)c3cnccc3c(C)c1n2C
- GI50 (786-0 renal): 66.6 nM
- TGI (786-0 renal): 1340 nM
- GI50 (A498 renal): 34.8 nM
- TGI (A498 renal): 166 nM
- GI50 (A549 NSCLC): 61.5 nM
- TGI (A549 NSCLC): 658 nM
- GI50 (ACHN renal): 29.7 nM
- TGI (ACHN renal): 299 nM
- GI50 (BT-549 breast): 247 nM
- TGI (BT-549 breast): 3540 nM
- GI50 (CAKI-1 renal): 35.4 nM
- TGI (CAKI-1 renal): 610 nM
- GI50 (CCRF-CEM leukemia): 103 nM
- TGI (CCRF-CEM leukemia): 13800 nM
- GI50 (COLO 205 colon): 38.7 nM
- TGI (COLO 205 colon): 277 nM
- GI50 (DU-145 prostate): 51.3 nM
- TGI (DU-145 prostate): 1280 nM
- GI50 (EKVX NSCLC): 186 nM
- TGI (EKVX NSCLC): 623 nM
- GI50 (HCC-2998 colon): 137 nM
- TGI (HCC-2998 colon): 3850 nM
- GI50 (HCT-15 colon): 39.4 nM
- TGI (HCT-15 colon): 1380 nM
- GI50 (HL-60(TB) leukemia): 243 nM
- TGI (HL-60(TB) leukemia): 1050 nM
- GI50 (HOP-62 NSCLC): 53.8 nM
- TGI (HOP-62 NSCLC): 995 nM
- GI50 (HOP-92 NSCLC): 65.3 nM
- TGI (HOP-92 NSCLC): 584 nM
- GI50 (HS 578T breast): 108 nM
- TGI (HS 578T breast): 584 nM
- GI50 (HT29 colon): 41.8 nM
- TGI (HT29 colon): 1400 nM
- GI50 (IGROV1 ovarian): 32.3 nM
- TGI (IGROV1 ovarian): 569 nM
- GI50 (K-562 leukemia): 44.2 nM
- TGI (K-562 leukemia): 1800 nM
- GI50 (KM12 colon): 49.5 nM
- TGI (KM12 colon): 1890 nM
- GI50 (LOX IMVI melanoma): 39.1 nM
- TGI (LOX IMVI melanoma): 194 nM
- GI50 (M14 melanoma): 62.2 nM
- TGI (M14 melanoma): 241 nM
- GI50 (MALME-3M melanoma): 61.5 nM
- TGI (MALME-3M melanoma): 314 nM
- GI50 (MCF7 breast): 109 nM
- TGI (MCF7 breast): 511 nM
- GI50 (MDA-MB-231 breast): 125 nM
- TGI (MDA-MB-231 breast): 884 nM
- GI50 (MDA-MB-435): 58.5 nM
- TGI (MDA-MB-435): 1090 nM
- GI50 (MOLT-4 leukemia): 46.8 nM
- TGI (MOLT-4 leukemia): 3130 nM
- GI50 (NCI-H226 lung): 57.4 nM
- TGI (NCI-H226 lung): 341 nM
- GI50 (NCI-H23 lung): 53 nM
- TGI (NCI-H23 lung): 328 nM
- GI50 (NCI-H460 lung): 178 nM
- TGI (NCI-H460 lung): 674 nM
- GI50 (NCI-H522 lung): 66.7 nM
- TGI (NCI-H522 lung): 528 nM
- GI50 (NCI/ADR-RES ovarian): 49.8 nM
- TGI (NCI/ADR-RES ovarian): 636 nM
- GI50 (OVCAR-3 ovarian): 65.2 nM
- TGI (OVCAR-3 ovarian): 1150 nM
- GI50 (OVCAR-4 ovarian): 83.9 nM
- TGI (OVCAR-4 ovarian): 531 nM
- GI50 (OVCAR-5 ovarian): 117 nM
- TGI (OVCAR-5 ovarian): 1260 nM
- GI50 (OVCAR-8 ovarian): 59.5 nM
- TGI (OVCAR-8 ovarian): 3790 nM
- GI50 (PC-3 prostate): 57.9 nM
- TGI (PC-3 prostate): 4060 nM
- GI50 (RPMI-8226 leukemia): 47.5 nM
- TGI (RPMI-8226 leukemia): 409 nM
- GI50 (RXF 393 renal): 51.2 nM
- TGI (RXF 393 renal): 286 nM
- GI50 (SF-268 CNS): 61.8 nM
- TGI (SF-268 CNS): 3060 nM
- GI50 (SF-295 CNS): 65.2 nM
- TGI (SF-295 CNS): 558 nM
- GI50 (SF-539 CNS): 75 nM
- TGI (SF-539 CNS): 763 nM
- GI50 (SK-MEL-2 melanoma): 107 nM
- TGI (SK-MEL-2 melanoma): 471 nM
- GI50 (SK-MEL-28 melanoma): 95.1 nM
- TGI (SK-MEL-28 melanoma): 444 nM
- GI50 (SK-MEL-5 melanoma): 86.6 nM
- TGI (SK-MEL-5 melanoma): 253 nM
- GI50 (SK-OV-3 ovarian): 107 nM
- TGI (SK-OV-3 ovarian): 527 nM
- GI50 (SN12C renal): 44 nM
- TGI (SN12C renal): 1300 nM
- GI50 (SNB-19 CNS): 50.9 nM
- TGI (SNB-19 CNS): 7650 nM
- GI50 (SNB-75 CNS): 72 nM
- TGI (SNB-75 CNS): 563 nM
- GI50 (SR leukemia): 37.2 nM
- TGI (SR leukemia): 2040 nM
- GI50 (SW-620 colon): 37.5 nM
- TGI (SW-620 colon): 1310 nM
- GI50 (T-47D breast): 280 nM
- TGI (T-47D breast): 2250 nM
- GI50 (TK-10 renal): 277 nM
- TGI (TK-10 renal): 3350 nM
- GI50 (U251 CNS): 49.9 nM
- TGI (U251 CNS): 1480 nM
- GI50 (UACC-257 melanoma): 101 nM
- TGI (UACC-257 melanoma): 511 nM
- GI50 (UACC-62 melanoma): 41.6 nM
- TGI (UACC-62 melanoma): 151 nM
- GI50 (UO-31 renal): 36.9 nM
- TGI (UO-31 renal): 821 nM
